Data taken from US20260042801A1, “COMPOSITIONS AND METHODS FOR DYE-BOUND CYCLIZED PEPTIDES FOR MEDICAL USE” (The Texas A&M University System, priority 2022, published 2026).

Key:
[1] = tested on: primary adult cortical neurons; assay: Primary adult cortical neuron culture: survival and neurite outgrowth; type: cell-based, mouse; settings: adult neurons from 6-month-old mice, 2 days with 5c(i)
Protocol: FIGS. 3A-3C: 5c(i) augments neuritogenesis and neuron survival. Primary adult cortical neurons from 6-month-old female mice were treated with 5c(i) for 2 days. 5c(i) was added at the time of cell plating. Cells were fixed 2 days after cell plating. 3A) Graph represents mean±SEM of percent change in neurite outgrowth per cell and number of surviving neurons. Representative images of 3B) Vehicle and 3C) 5000 nM 5c(i) treated groups. Linear regression was conducted to determine statistical significance. […] Scale bar=50 μm.
For all cell culture experiments, primary neural cells were extracted from the cortices of […] mice. The extraction, purification, and separation of neurons and glia was conducted as previously before^58 covered under patent application WO2022266431, incorporated by reference herein in its entirety. Briefly, after euthanization of mice, the brains were microdissected and placed in papain filled GENTLEMACS™ (tissue dissector) C Tubes followed by cell dissociation using the GENTLEMACS™ (tissue dissector) Octo Dissociator with Heaters with heating cuffs using the GENTLEMACS™ (tissue dissector) Program 37C_ABDK_01 protocol. After protocol completion, the contents were strained through a 70 μm cell strainer, debris and red blood cells were removed, and the remaining solution was labeled with glia specific antibodies. […]

[2] = tested on: Synapsin I; assay: Astrocyte Synapsin I staining (fluorescent intensity); type: cell-based, mouse; settings: astrocytes from 6-month-old male mice, 5 μM, 3 days
Protocol: FIGS. 4A-4D: 5c(i) induces Synapsin I production and reduces C3 and GSK-3s expression from astrocytes promoting neuron survival and neurite growth. Primary adult cortical astrocytes from 6-month-old male mice were incubated with 5 μM 5c(i) for 3 days. Graph represents mean±SEM of percent change in fluorescent intensity (Synapsin I and C3) or chemiluminescence (GSK-3β) relative to Vehicle (4A and 4D). Images represent the 4B) Vehicle and 4C) 5 μM 5c(i) treated groups stained with Synapsin I and DAPI. D) Cortical astrocytes from 6-month-old male mice were plated and treated with 5c(i) or Vehicle for 2 days. Cells were then washed and cortical neurons from 6-month-old male mice were added on top of the astrocytes. […] Scale bar=50 μm.
To determine if 5c(i) can modulate astrocytes, adult astrocytes from 6-month-old male mice were treated with 5c(i) for 3 days and stained with Synapsin I and C3 to measure changes in fluorescent intensity or western blot was conducted on the cell lysate to assess changes in GSK-3β expression (FIG. 4). […] To determine if 5c(i) treated astrocytes can directly benefit neuronal recovery, astrocytes were cultured with 5c(i) for 2 days before removing 5c(i) from the culture and plating adult neurons on top of the astrocytes for 2DIV, resulting in increased neuron survival and neurite growth. […]

## C-DIRG-C BODIPY® (fluorescent dye) [5c(i)]
[1]
  increase in neurite outgrowth: 42%
  increase in neuron survival: 94%
[2]
  Synapsin I production: significant increase
